Test results published in patent US20250160678A1, “GRAPHENE SENSOR SYSTEMS FOR C[…] ANALYSIS” (VOCxI Health, Inc., priority 2023, published 2025).

Test: elimination curves of cannabinoids after ingestion (FIG. 2)
Type: in vivo
Conditions: time of Test 2 (which may be two hours after cannabinoid ingestion)
From the text: Referring now to FIG. 1, a chart is shown of elimination curves of various cannabinoids. […] The relative amounts of cannabinoid metabolites (e.g., intermediate or final breakdown products of cannabinoid compounds in the body) will also vary with time after an ingestion event.
As previously referenced, the relative amounts of one cannabinoid compound to another and/or metabolites thereof will vary with time after an ingestion event because their different half-lives in the body. As such, a pattern of compounds captured with a system herein at time point that is closer to the time of ingestion will be different than a pattern of compounds captured at a later time. Referring now to FIG. 2, a chart is shown of elimination curves of various cannabinoids. […] In this example, exemplary test times are shown in the form of Test 1, Test 2, and Test 3, with each test being progressively spaced out farther away in time from the time of ingestion. […] Because of this, patterns as identified by systems herein are different at each test time. For example, at the time of Test 1 (which may be a half-hour after cannabinoid ingestion) the amount of CBN is roughly 80 to 90 percent of the amount of THC. In contrast, at the time of Test 2 (which may be two hours after cannabinoid ingestion) the amount of CBN is only about 50 percent of the amount of THC. […]

With `CCCCCc1cc(O)c2c(c1)OC(C)(C)c1ccc(C)cc1-2` [CBN, cannabinol] the “amount of CBN as percent of the amount of THC” value was “about 50%”.
